In the test the target is Hydroxycarboxylic acid receptor 2 (Homo sapiens) (UniProt Q8TDS4). The experiment in a line: Displacement of [3H]nicotinic acid from human GPR109a receptor expressed in human HEK293T cells at 10 uM by liquid scintillation counting. The class given is cell-based. Conditions: HEK-293T.
Sequence of Hydroxycarboxylic acid receptor 2 (Homo sapiens) (Q8TDS4 whole entry): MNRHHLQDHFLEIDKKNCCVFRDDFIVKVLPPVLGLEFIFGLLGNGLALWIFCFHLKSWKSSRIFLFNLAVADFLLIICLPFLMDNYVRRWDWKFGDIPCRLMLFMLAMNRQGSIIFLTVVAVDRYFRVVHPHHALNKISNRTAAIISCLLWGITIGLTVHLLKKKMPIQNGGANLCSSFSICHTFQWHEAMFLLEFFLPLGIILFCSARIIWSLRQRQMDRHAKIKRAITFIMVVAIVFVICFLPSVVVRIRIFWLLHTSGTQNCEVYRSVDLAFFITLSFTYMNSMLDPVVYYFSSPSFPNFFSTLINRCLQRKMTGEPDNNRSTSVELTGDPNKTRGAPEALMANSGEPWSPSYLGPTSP

Consider `COc1cc(/C=C/C(=O)O)ccc1O`, for which the Activity is 0%.

In turn, `O=C(O)/C=C/C(=O)O` had an Activity of 10%.

The record behind these values is ChEMBL document CHEMBL1770096, “Structure-activity relationships of trans-substituted-propenoic acid derivatives on the nicotinic acid receptor HCA2 (GPR109A)” (Bioorg Med Chem Lett, 2011).
